Our source for the inhibition and inhibition in vivo values is patent US5225436A, “Aryl substituted naphthalene derivatives” (Schering Corporation, priority 1991, dated 1993).

For test [1], the target named is T1, 5-lipoxygenase (Homo sapiens, UniProt P09917).
T1 construct: Human polymorphonuclear leukocytes (neutrophils) were obtained from normal healthy volunteers; endogenous in cells; host or cells: human blood neutrophils from healthy volunteers
T1 sequence (P09917 1-674): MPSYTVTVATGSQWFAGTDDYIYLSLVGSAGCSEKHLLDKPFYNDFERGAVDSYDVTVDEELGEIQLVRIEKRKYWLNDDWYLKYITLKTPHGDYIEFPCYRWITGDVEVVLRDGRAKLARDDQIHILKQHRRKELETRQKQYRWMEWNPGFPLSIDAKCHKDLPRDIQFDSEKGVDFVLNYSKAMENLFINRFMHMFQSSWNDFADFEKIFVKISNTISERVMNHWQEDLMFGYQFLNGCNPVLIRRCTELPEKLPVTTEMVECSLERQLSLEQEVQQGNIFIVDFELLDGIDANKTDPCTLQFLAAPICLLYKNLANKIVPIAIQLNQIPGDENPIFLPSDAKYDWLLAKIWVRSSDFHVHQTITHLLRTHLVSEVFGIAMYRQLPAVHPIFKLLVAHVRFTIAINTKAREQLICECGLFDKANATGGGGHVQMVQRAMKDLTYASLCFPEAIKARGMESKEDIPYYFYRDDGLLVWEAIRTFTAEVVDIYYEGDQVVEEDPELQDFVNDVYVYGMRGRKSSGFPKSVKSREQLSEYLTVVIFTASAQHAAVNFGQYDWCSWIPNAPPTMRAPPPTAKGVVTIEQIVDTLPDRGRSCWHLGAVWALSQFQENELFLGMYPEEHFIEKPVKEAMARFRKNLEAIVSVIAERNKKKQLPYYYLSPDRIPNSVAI
Kind of test: 5-Lipoxygenase assay with human neutrophils. Format: cell-based. Conditions: 5 min, Human PMN, dose 15 μm (μM). As for the experimental part: Human polymorphonuclear leukocytes (neutrophils) were obtained from normal healthy volunteers by venipuncture and collected with heparin anticoagulant. Neutrophils were isolated by Dextran/Ficol sedimentation as described (Billah et al., J. Biol. Chem. 260, 6899-6906 (1985)). In brief, 30 ml of blood was mixed with 5 ml of dextran (Sigma) solution and kept at 37° C. for 30 min. The upper white cell-rich layer was removed and 10 ml was layered on 9 ml of Ficol-Paque solution (Pharmacia) and centrifuged at 280 xg for 10 min. at 5° C. The supernatant was removed and the neutrophil pellet was resuspended in HEPES buffer containing 25 mM N-2-hydroxyethylpiperazine-N^1 -2-ethanesulfonic acid HEPES, 125 mM NaCl, 2.5 mM KCl, 0.7 mM MgCl2, […] 10 mM glucose at pH 7.4. The red cells in the suspension were lysed by hypotonic shock. The neutrophils were washed by centrifugation in HEPES buffer two times and finally resuspended at a concentration of 20×10^6 cells/ml in the presence of 1 mM CaCl2.
Neutrophils (0.2 ml of suspension) were preincubated with dimethylsulfoxide (DMSO) vehicle with or without test compound (1 ul) for 4 minutes then incubated for 5 minutes with [^14 C] arachidonic acid (Amersham, 59 Ci/mole) at a 9 uM final concentration, and the calcium ionophore A23187 (Calbiochem) at a 1 uM final concentration. These stimulants were added in 10 ul of water:ethanol (9:1). The reaction was stopped by addition of methanol (0.4 ml), and cellular debris was removed by centrifugation. Aliquots (100 ul) of the incubations were run on a Waters two pump HPLC system fitted with a DuPont Zorbax ODS, 5u, […] Reliance Cartridge column and C18 "Guard Pak". The column was initially eluted at 2 ml/min with 80% of the mixture water:methanol:acetic acid (46:54:0.08) containing 1 mM EDTA adjusted to pH 6.0 with ammonium hydroxide (Pump A) and 20% methanol (Pump B). At 10 minutes, a linear gradient to reach 100% methanol (Pump B) at 27 minutes was established. Between 27 and 28 minutes, methanol was exchanged for the initial eluting solvent and by 35 minutes the column had been reequilibrated for the next sample. The effluent was analyzed by a continuous flow radioactivity monitor (model ROMONA-D) interfaced with a Hewlett Packard Lab Automation System for quantitation of radioactive products. These were predominantly leukotriene B4 (LTB4) which eluted at 7 minutes, and 5-hydroxyeicosatetraenoic acid (5-HETE) which eluted at 20 minutes.

Test [2] relates to SRS-A / leukotriene release from antigen-challenged, sensitized guinea pig lung. Kind of test: Inhibition of SRS-A (leukotriene) release from antigen-challenged, sensitized guinea pig lung. Details: inhibition: dose or concentration left out as unconfirmed. Type of test: cell-based. The conditions noted are these: Cavia porcellus; for inhibition: Dose 30 μm (μM). The source says:
The anti-allergy method of this invention is identified by tests which measure a compound's inhibition of leukotriene release in sensitized guinea pigs. Sensitized guinea pigs are killed by a blow to the head and the lungs removed and cleaned of visible connective tissue, trachea and large blood vessels. The lungs from individual animals are sliced into fragments approximately 1 mm in thickness using a McIlwain tissue chopper and then washed with oxygenated Tyrode's buffer. Weighed aliquots (approximately 400 mg wet weight) of lung are transferred into vials containing 2 ml of fresh Tyrode's solution (containing 10 mM cysteine) and incubated in the presence or absence of test compound for 12 min at 37° C. The tissues are then challenged with 20 μg ovalbumin/ml (final concentration) and incubated for 15 min. To measure leukotriene release, an aliquot of supernatant fluid is extracted with 4 volumes of 100% ethanol. After removal of the precipitated protein, the clear fluid is dried under a stream of N2 gas. The leukotriene content is measured by a radioimmunoassay using [^3 H]LTC4 and antiserum obtained from New England Nuclear. The cross-reactivity of the antiserum for LTD4 is 55%. Percent inhibition of lekotriene release is calculated by comparing for each lung the release in the presence of the test compound to that in the absence of test compound. Representative compounds of the invention at a relative dose of 50 μM of tissue are found to inhibit leukotriene release in the test procedure as indicated below in Table 1: […]

In test [3] the test system is anaphylactic bronchospasm (antigen-induced SRS-A mediated bronchoconstriction). In words: Inhibition of anaphylactic bronchospasm in sensitized guinea pigs. Type of test: in vivo, guinea pig. Conditions: Cavia porcellus, iv, 0.25 h; for inhibition in vivo at 10 mg/kg: read-out: % Inhibition of anaphylactic bronchospasm; for inhibition in vivo at 3 mg/kg: Dose 3 mpk. How it is done:
The anti-allergy method of this invention is identified by tests which measure a compound's inhibition of anaphylactic bronchospams-in sensitized guinea pigs having antigen-induced SRS-A mediated bronchoconstriction. Allergic bronchospams was measured in actively sensitized guinea pigs by a modification of the procedure of Konzett and Rossler, Arch. Exptl. Pathol. Pharmakol., 194, pp. 71-74 (1940). Male Hartley guinea pigs were sensitized with 5 mg ovalbumin injected ip and 5 mg injected sc in 1 ml saline on day 1 and 5 mg ovalbumin injected ip on day 4. The sensitized animals were used 3-4 weeks later. To measure anaphylactic bronchospasm, sensitized guinea pigs were fasted overnight and the following morning were anesthetized with 0.9 ml/kp ip dialurethane. The trachea and jugular vein were cannulated and the animals were ventilated by a Harvard rodent respirator. A side arm to the tracheal cannula was connected to a Harvard pressure transducer to obtain a continuous measure of intratracheal pressure. An increase in intratracheal pressure was taken as a measure of bronchoconstriction. Each guinea pig was injected iv with 1 mg/kg propranolol, 5 mg/kg indomethacin and 2 mg/kg mepyramine given together in a volume of […]. Fifteen minutes later, the animals were challenged with antigen (0.5 percent ovalbumin) delivered as an aerosol generated from a DeVilbiss Model 65 ultrasonic nebulizer and delivered through the tracheal cannula for 30 seconds. Bronchoconstriction was measured as the peak increase in intratracheal pressure occurring within 15 minutes after antigen challenge.

In test [4] the target is T2, 5-lipoxygenase (Mus musculus, UniProt P48999).
T2 construct: The IL-3-dependent murine mast cell clone, MC-9, was used to test the effects; endogenous in cells; host or cells: MC-9 (IL-3-dependent murine mast cell clone)
T2 sequence (P48999 1-674): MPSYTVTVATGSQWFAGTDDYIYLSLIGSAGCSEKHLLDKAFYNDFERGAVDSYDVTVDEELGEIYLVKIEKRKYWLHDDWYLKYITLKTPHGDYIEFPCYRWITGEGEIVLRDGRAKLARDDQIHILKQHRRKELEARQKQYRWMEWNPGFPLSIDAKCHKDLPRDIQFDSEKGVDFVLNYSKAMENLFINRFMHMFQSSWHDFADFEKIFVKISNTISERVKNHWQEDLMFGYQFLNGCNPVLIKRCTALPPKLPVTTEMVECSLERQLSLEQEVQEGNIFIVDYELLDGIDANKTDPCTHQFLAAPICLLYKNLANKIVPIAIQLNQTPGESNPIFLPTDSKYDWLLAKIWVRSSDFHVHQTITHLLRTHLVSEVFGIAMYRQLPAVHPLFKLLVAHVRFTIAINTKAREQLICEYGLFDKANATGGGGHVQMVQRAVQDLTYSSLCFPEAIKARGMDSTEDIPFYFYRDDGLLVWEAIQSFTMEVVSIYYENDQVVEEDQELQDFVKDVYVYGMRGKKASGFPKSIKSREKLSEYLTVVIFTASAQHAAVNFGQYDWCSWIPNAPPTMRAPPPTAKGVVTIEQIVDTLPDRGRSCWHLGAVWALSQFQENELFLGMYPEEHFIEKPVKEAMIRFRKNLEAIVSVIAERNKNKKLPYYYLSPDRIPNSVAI
Kind of test: 5-Lipoxygenase assay (murine mast cell clone MC-9). Type of test: cell-based. Conditions: MC9, 5 min; MC-9 cell, dose 2 μm; read-out: % Inhibition 5-HETE. As for the experimental part: The IL-3-dependent murine mast cell clone, MC-9, was used to test the effects of representative compounds of the invention on lipoxygenase activity. The MC-9 cell line was grown in suspension culture (0.4 to 1.2×10^6 cells/ml) in RPMI 1640 medium (Gibco) with 10% fetal bovine serum (Hyclone) and 2-5% conconavalin-A conditioned supernatant (Musch et. al., (1985) Prostagandins 29, 405-4307. Cells were harvested, washed twice by centrifugation, and resuspended in a Ca^++ -free HEPES buffer (25 mM HEPES, 125 mM NaCl, 2.5 mM KCl 0.7 mM MgCl2, 0.5 mM EGTA and 10 mM glucose at pH 7.4).
MC-9 cells (0.39 ml at 7.5×10^6 cells/ml) were preincubated with dimethylsulfoxide (DMSO) vehicle with or without test compound (1 ul) for 4 minutes then incubated for 5 minutes with [^14 C] arachidonic acid (Amersham, 59 Ci/mole) at a 9 uM final concentration, and A23187 (Calbiochem) at a 1 uM final concentration was added in 10 ul of water:ethanol (9:1). The reaction was stopped by addition of methanol (0.4 ml), and cellular debris was removed by centrifugation. Aliquots (250 ul) of the incubations were run on a Waters two pump HPLC system fitted with a Waters C18, 10 u 8×100 mm u-Bondapak radial compression column and C18 "Guard Pak". The column was initially eluted at 3 ml/min with water:methanol:acetic acid (67:33:0.08) containing 1 mM EDTA adjusted to pH 6.0 with ammonium hydroxide (Pump A). At 4 minutes, a linear gradient to reach 100% methanol (Pump B) at 9 minutes was established. Between 13 and 14 minutes, methanol was exchanged for the initial eluting solvent and by 19 minutes the column had been reequilibrated for the next sample. The effluent was analyzed by a continuous flow radioactivity monitor (model ROMONA-D) interfaced with a Hewlett Packard Lab Automation System for quantitation of radioactive products. These were predominantly leukotriene C4 (LTC4) which eluted at 6 minutes, and 5-hydroxyeicosatetraenoic acid (5-HETE) which eluted at 11 minutes (Musch et. al., supra).

The structures appear in SMILES notation. Read-outs that look alike come from different tables or passages of the source.

For orientation: inhibition means the share of the control response that was lost under treatment.

For the molecule `COc1cc(OC)c2c(c1)C(C)(C)C(c1ccc(OC)c(OC)c1)CC2=NNC(N)=O` (centres unmarked), the figures for the inhibition at 15 µM on 5-lipoxygenase [1] (read-out: % Inhibition 5-HETE) and on 5-lipoxygenase [1] (read-out: % Inhibition LTB) were 2% and 0%, respectively. Also, the inhibition at 10 µM in test [2] was determined as 1%. Also, the inhibition in vivo at 10 mg/kg in test [3] (Dose 10 mpk) is 20%.
Turning to `COc1cc(OC)c2c(c1)C(C)(C)C(c1ccc(OC)c(OC)c1)=CC2=NO`, the inhibition at 15 µM worked out at 0% at 5-lipoxygenase [1] (read-out: % Inhibition 5-HETE) and 9% on 5-lipoxygenase [1] (read-out: % Inhibition LTB). For the same molecule, the inhibition in test [2] was found to be 0%. Further, the inhibition in vivo at 10 mg/kg in test [3] (Dose 10 mpk) amounted to 0%.
On to `COc1cc(OC)c2c(c1)C(C)(C)C(c1ccc(OC)c(OC)c1)=C(C)C2=O`, for which the inhibition at 15 µM at 5-lipoxygenase [1] (read-out: % Inhibition 5-HETE) turned out to be 1%; on 5-lipoxygenase [1] (read-out: % Inhibition LTB), 0%. Also, the inhibition at 10 µM in test [2] was 20%. Moreover, the inhibition in vivo at 10 mg/kg in test [3] (Dose 10 mpk) was 24%.
Regarding `CCOc1cc(OC)cc2c1C(=NO)CC(c1ccc(OC)c(OC)c1)C2(C)C` (centres unmarked), in test [3], the inhibition in vivo at 3 mg/kg stood at 25%.
In the case of `COc1cc(O)c2c(c1)C(C)(C)C(c1ccc(OC)c(OC)c1)CC2=NO` (centres unmarked), on 5-lipoxygenase [1] (read-out: % Inhibition 5-HETE), the inhibition at 15 µM was 42%. The inhibition in vivo at 10 mg/kg in test [3] (Dose 10 mpk) is 0%.
As to `COc1cc(OC)c2c(c1)C(C)(C)C(c1ccc(OC)c(OC)c1)CC2=NOC(=O)C(C)(C)C` (centres unmarked), in test [3] (Dose 10 mpk), the inhibition in vivo at 10 mg/kg was 20%.
`CN(C)C(=O)Oc1cc(OC(=O)N(C)C)c2c(c1)C(C)(C)C(c1ccc(OC(=O)N(C)C)c(OC(=O)N(C)C)c1)=CC2=O`: the inhibition in vivo at 10 mg/kg in test [3] worked out at 10%.
On to `CC1(C)c2cc(O)cc(O)c2C(=O)CC1c1ccc(O)c(O)c1` (centres unmarked) [drawing 79 [R3/R4=O; E,G,P,L=OH; J=H; db no]], for which the inhibition at 50 µM in test [2] (Dose 50 μm) was 67%. The inhibition at 2 µM on 5-lipoxygenase [4] amounted to 0%.
On to `COc1cc(OC)c2c(c1)C(C)(C)C(c1ccc(OC)c(OC)c1)CC(=NO)C2` (centres unmarked) [drawing 89 [X=CH2; R3/R4=NOH; P=OCH3]], for which the inhibition at 15 µM on 5-lipoxygenase [1] (read-out: % Inhibition 5-HETE) was 87%. In test [2], the inhibition amounted to 46%. In addition, the inhibition in vivo at 3 mg/kg in test [3] was 0%.
With `COc1cc(OC)c2c(c1)C(C)(C)C(c1ccc(OC)c(OC)c1)CC(=O)C2` (centres unmarked) [drawing 89 [X=CH2; R3/R4=O; P=OCH3]], the inhibition at 15 µM on 5-lipoxygenase [1] (read-out: % Inhibition 5-HETE) was determined as 87%; on 5-lipoxygenase [1] (read-out: % Inhibition LTB), 97%. Further, in test [2], the inhibition is 47%. In addition, the inhibition in vivo at 10 mg/kg in test [3] (Dose 10 mpk) came out at 0%.
